Target: TGR25-GFP fusion protein (UniProt P42212+Q86Y34, F64L/I167T/S65C)
Experiment: Internalization of the TGR25-GFP fusion protein expressed on CHO cells (confocal microscope)
Format: cell-based, human
Settings: 100 μM AM251, 45 minutes, 37° C.

Cc1c(C(=O)NN2CCCCC2)nn(-c2ccc(Cl)cc2Cl)c1-c1ccc(I)cc1 [AM251, 1-(2,4-dichlorophenyl)-5-(4-iodophenyl)-4-methyl-N-piperidin-1-yl-1H-pyrazole-3-carboxamide]
localization of the TGR25-GFP fusion protein (internalization): moved in part to the cytoplasm

From patent publication US7927821B2, “Methods of screening for compounds which bind G protein-coupled receptors” (Takeda Pharmaceutical Company Limited, priority 2004, dated 2011)
